Assay results published in patent US9381243B2, “Methods of identifying critically ill patients at increased risk of development of organ failure and compounds for the treatment hereof” (Rigshospitalet, priority 2008, dated 2016).

Assays:
[1] = depends on administration form and/or dosage; cited from earlier work
[2] = tested on: critically ill patients admitted to the ICU; experiment: Retrospective review of haemofiltration with or without Flolan in the filters; type: in vivo, human
Procedure: Ninety-four critically ill patients admitted to the intensive care unit (ICU) underwent haemofiltration with or without concomitant Flolan (prostacyclin) treatment. Flolan was administered in a low dose of 4-6 ng/kg/min in the filters to prevent these from clotting and consequently there was only a minor spill over of Flolan to the systemic circulation. The patients were retrospectively reviewed.

[3] = tested on: whole blood haemostatic activity; experiment: Whole blood viscoelastical assay (TEG) during Flolan infusion; type: in vivo, human; settings: 6 healthy volunteers, 4 ng/kg/min IV, after 60 and 120 min infusion
Source text: The TEG analyzer uses a small whole blood sample in a rotating cup and a pin suspended in the blood by a torsion wire, which is monitored for motion. To speed up the clot formation, a standardized amount of an activator of coagulation (e.g. Kaolin, tissue factor) may be added to the cup just before the pin is placed in the cup. The torque of the rotating cup is transmitted to the immersed pin only after fibrin and/or fibrin-platelet bonding has linked the cup and pin together. The strength and rate of these bonds affect the magnitude of the pin motion such that strong clots move the pin directly in phase with cup motion. Thus, the TEG technology documents the interaction of platelets with the protein coagulation cascade from the time of placing the blood in the analyzer until initial fibrin formation, clot rate strengthening and fibrin-platelet bonding via GPIIb/IIIa, through eventual clot lysis. […]
With regard to the TEG assay this was performed as recommended by the manufacturer and 340 μl are mixed with 20 μl CaCl 0.2 M (final concentration 11.1 mM in the cup) and kaolin at 37° C. after which the haemostatic activity is recorded as depicted in FIG. 1.

[4] = tested on: platelet aggregation in whole blood; experiment: Whole blood platelet aggregation (Multiplate) during Flolan infusion; type: in vivo, human; settings: 6 healthy volunteers, 4 ng/kg/min IV, after 60 and 120 min infusion
Procedure: Six healthy volunteers were administered flolan (prostacyclin) intravenously at a dose of 4 ng/kg/min for 2 h. Blood samples for whole blood viscoelastical assay (Thrombelastography [TEG]) and whole blood platelet aggregation (Multiplate) was obtained before infusion of Flolan, after 60 min infusion of Flolan and after 120 min infusion of Flolan.
Whole blood impedance aggregometry analyzed by the Multiple Platelet function Analyzer (MultiPlate® analyzer). Analysis employing various platelet agonists: ASPItest (activation by arachidonic acid), COLtest (activation by collagen through the collagen receptor), TRAPtest (activation by TRAP-6 stimulates the thrombin receptor on the platelet surface and ADPtest (activation by ADP stimulates platelet activation by the ADP receptors).
MultiPlate continuously records platelet aggregation. The increase of impedance by the attachment of platelets onto the Multiplate sensors is transformed to arbitrary aggregation units (AU) and plotted against time as depicted in FIG. 2.

[5] = tested on: patients with severe sepsis; settings: cited from earlier work
[6] = Flolan 4-6 ng/kg/min in the filters, n = 24

Which half time [1] does the source give for `CC#CCC(C)[C@H](O)/C=C/[C@@H]1[C@H]2c3cccc(CCCC(=O)O)c3O[C@H]2C[C@H]1O` (mixture of isomers) [Beraprost] here?
Its half time is 35 to 40 min.

What does the source list for `CCCCC[C@H](O)/C=C/[C@@H]1[C@H]2C/C(=C/CCCC(=O)O)O[C@H]2C[C@H]1O` [Flolan, prostacyclin]?
90 day survival (%) [2, 6]: 67%; Platelet count (difference before vs. after haemofiltration) [2, 6]: +14; haemostatic competence as evaluated by transfusion requirements ([2]; critically ill patients undergoing haemofiltration): does not negatively influence; mortality at 30 days ([2]; vs. 39% non-flolan, p=0.12): 21%; mortality at 90 days ([2]; vs. 53% non-flolan, p=0.10): 34%; mortality at 365 days ([2]; vs. 57% non-flolan, p=0.09): 38%; TEG values (R, Angle, MA) vs baseline [3]: No significant difference; Multiplate values (ASPI, COL, ADP, TRAP) vs baseline [4]: no significant difference; half time [1]: 0.5 to 3 min

With `CC#CCC(C)[C@H](O)/C=C/[C@@H]1[C@H]2C/C(=C/CCCC(=O)O)C[C@H]2C[C@H]1O` (some centres unmarked) [Iloprost] as the molecule, how does the half time [1] read?
The half time was 20 to 30 min.

With `CSCCNc1nc(SCCC(F)(F)F)nc2c1ncn2[C@@H]1O[C@H](COP(=O)(O)OP(=O)(O)C(Cl)(Cl)P(=O)(O)O)[C@@H](O)[C@H]1O` [cangrelor] as the molecule, how does the half time [1] read?
Its half time is 3 to 5 min.

Which All cause mortality ([5]; 1754 patients, severe sepsis, vs 33.9% placebo, p=0.88) does the source give for “Tifacogin: recombinant tissue factor pathway inhibitor” here?
The All cause mortality was 34.2%.

What about the risk of bleeding ([5]; in vivo) of the same molecule?
Its risk of bleeding is “increase in risk of bleeding”.
